Assay [1] relates to electroshock seizure, Male Wistar rats. Description: In vivo rat assay for anti-convulsant activity (rat MES, electroshock seizure). As to conditions: for Rat MES activity: single dose screening, oral, typically 10 mg/kg, animals protected from hind limb extension; for ED50: Rattus norvegicus, po, rat MES dose-response. Here is the method: Male Wistar rats were housed 4 per cage on a regular light/dark cycle (lights on 0600-1800) for one week prior to anti-convulsant testing. The apparatus used to induce electroshock seizure was obtained from Walhquist Instrument Co., Salt Lake City, Utah. The shock level was set at 150 mA and the duration at 0.2 seconds. A drop of 1% proparacaine solution was placed in each eye of a rat, the electrodes were placed over the eyes, and the shock was administered. Latency to hind limb extension was measured to the nearest 0.1 second.
The KCNQ opener was homogenized in either 0.5% carboxymethylcellulose in water or 0.5% methylcellulose in water) and administered orally through a steel 18-gauge rat gavage tube in a volume of 2 mL/kg of body weight. In the single dose screening assay, latency to seizure for the vehicle group and the KCNQ opener group were compared using t-test. Typically a dose of 10 mg/kg of the opener is used. However, openers can be run n a dose-response experiment where doses of 1, 3, 10 and 30 mg/Kg are used.
In the single dose screening assay, latency to seizure for the vehicle and the 10 mg/kg groups were compared using t-test. Latencies to seizure in the dose response studies were submitted to analysis of variance and all dose groups were compared to vehicle using Dunnett's method (JMP© ver 5.1, SAS). In all cases an effect was considered significant if p≦0.05.

The test system of assay [2] is SH-SY5Y M-currents (KCNQ2, KCNQ3 and KCNQ5). Description: SH-SY5Y native cell line FLIPR assay (voltage-sensitive dye DiBAC). It is filed as cell-based, mouse neuroblastoma, rat glioma hybrid cell line. As to conditions: SH-SY5Y native cell line, read-out: SH-SY5Y EC50. Summed up:
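Response is peak DiBAC fluorescence change, normalised to the maximum from a positive control agent, sampled every 30 s over 25 min. Before compound addition, SH-SY5Y cells differentiated with PGE1 plus isomethylbutylxanthine were dye-loaded for 1 h in EBSS with […] DiBAC.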

Like-named read-outs stand apart in the source and are kept apart here.

The term EC50 denotes the concentration giving half of the maximal effect. One may read the ED50 as the midpoint of the dose-response relation. A low value points to an effect at a small dose.

In the case of `CC(C)(C)Cc1c(NC(=O)Cc2ccccc2)nc2ccc(C(F)(F)F)cn12` [Compound 20, N-(3-neopentyl-6-(trifluoromethyl)imidazo[1,2-a]pyridin-2-yl)-2-phenylacetamide], the “Rat MES activity” value in assay [1] was “+ (+ 2-3 animals protected)”. Also, the concentration for a half-maximal effect (EC50) in assay [2] (FLIPR assay, Table 1) is less than 500 nM.

In the case of `CC(CC(=O)Nc1nc2ccc(C(F)(F)F)cn2c1CC(C)(C)C)C(F)(F)F` (centres unmarked) [Compound 23, 4,4,4-trifluoro-3-methyl-N-(3-neopentyl-6-(trifluoromethyl)imidazoyl)butanamide], the “Rat MES activity” value in assay [1] is reported as “+ (+ 2-3 animals protected)”. For the same compound, in assay [2] (FLIPR assay, Table 1), the EC50 is less than 500 nM.

Consider `CC(C)(C)CCC(=O)Nc1nc2ccc(C(F)(F)F)cn2c1CC(C)(C)C` [Compound 24, 4,4-dimethyl-N-(3-neopentyl-6-(trifluoromethyl)imidazo[1,2-a]pyridin-2-yl)pentanamide], for which the “Rat MES activity” value in assay [1] is “+ (+ 2-3 animals protected)”. The concentration giving a half-maximal response (EC50) in assay [2] (FLIPR assay, Table 1) was less than 500 nM.

In the case of `CC(C)(C)CC(=O)Nc1nc2ccc(C(F)(F)F)cn2c1CC1CCCCC1` [Compound 32, N-(3-(cyclohexylmethyl)-6-(trifluoromethyl)imidazo[1,2-a]pyridin-2-yl)-3,3-dimethylbutanamide], in assay [1], the “Rat MES activity” value is “+ (+ 2-3 animals protected)”. In addition, the 50% effective concentration (EC50) in assay [2] (FLIPR assay, Table 1) is less than 500 nM.

As to `O=C(Cc1ccccc1)Nc1nc2ccc(C(F)(F)F)cn2c1C1CCCCC1` [Compound 38, N-(3-cyclohexyl-6-(trifluoromethyl)imidazo[1,2-a]pyridin-2-yl)-2-phenylacetamide], in assay [1], the “Rat MES activity” value is “++ (++ 4-6 animals protected)”. For the same compound, in assay [2] (FLIPR assay, Table 1), the EC50 is less than 500 nM.

Consider `CC(C)(C)Cc1c(NC(=O)C2CCCC2)nc2ccc(C(F)(F)F)cn12` [Compound 51, N-(3-neopentyl-6-(trifluoromethyl)imidazo[1,2-a]pyridin-2-yl)cyclopentanecarboxamide], for which the “Rat MES activity” value in assay [1] is given as “++ (++ 4-6 animals protected)”. For the same compound, in assay [2] (FLIPR assay, Table 1), the concentration giving a half-maximal response (EC50) is less than 500 nM.

For the compound `Cc1ccc2nc(NC(=O)CC(C)C(F)(F)F)c(CC(C)(C)C)n2n1` (centres unmarked) [Compound 68, 4,4,4-trifluoro-3-methyl-N-(6-methyl-3-neopentylimidazo[1,2-b]pyridazin-2-yl)butanamide], the “Rat MES activity” value in assay [1] is on record as “+++ (+++ 7-8 animals protected)”. Also, the EC50 in assay [2] (FLIPR assay, Table 1) was less than 500 nM.

Regarding `C[C@H](CC(=O)Nc1nc2ccc(C(F)(F)F)cn2c1C1CC1)C(F)(F)F` [Compound 89, (R)—N-(3-cyclopropyl-6-(trifluoromethyl)imidazo[1,2-a]pyridin-2-yl)-4,4,4-trifluoro-3-methylbutanamide], in assay [1], it took a dose of 5.8 mg/kg to reach the 50% effect level (ED50) and the “Rat MES activity” value is given as “+++ (+++ 7-8 animals protected)”. In addition, the concentration for a half-maximal effect (EC50) in assay [2] (FLIPR assay, Table 1) was 500 to 3000 nM.

Turning to `CC(C)(C)CC(=O)Nc1nc2ccc(F)cn2c1-c1ccc(C(F)(F)F)cc1` [Compound 128, N-(6-fluoro-3-(4-(trifluoromethyl)phenyl)imidazo[1,2-a]pyridin-2-yl)-3,3-dimethylbutanamide], the “Rat MES activity” value in assay [1] was “+++ (+++ 7-8 animals protected)”. The EC50 in assay [2] (FLIPR assay, Table 2) was less than 500 nM.

In the case of `CC1(CC(=O)Nc2nc3ccc(F)cn3c2-c2ccc(C(F)(F)F)cc2)CCCC1` [Compound 180, N-(6-fluoro-3-(4-(trifluoromethyl)phenyl)imidazo[1,2-a]pyridin-2-yl)-2-(1-methylcyclopentyl)acetamide], the “Rat MES activity” value in assay [1] was “++ (++ 4-6 animals protected)”. Moreover, in assay [2] (FLIPR assay, Table 2), the half-maximal effective concentration (EC50) was less than 500 nM.

`CC(C)(C)CC(=O)Nc1nc2ccc(F)cn2c1-c1cc(F)cc(C(F)(F)F)c1` [Compound 198, N-(6-fluoro-3-(3-fluoro-5-(trifluoromethyl)phenyl)imidazo[1,2-a]pyridin-2-yl)-3,3-dimethylbutanamide]: in assay [1], the “Rat MES activity” value is “+++ (+++ 7-8 animals protected)”. In addition, in assay [2] (FLIPR assay, Table 2), the 50% effective concentration (EC50) is less than 500 nM.

Turning to `CC(C)(C)CC(=O)Nc1nc2ccccn2c1-c1ccc(OC(F)(F)F)cc1` [Compound 225, 3,3-dimethyl-N-(3-(4-(trifluoromethoxy)phenyl)imidazo[1,2-a]pyridin-2-yl)butanamide], in assay [1], the “Rat MES activity” value is listed as “++ (++ 4-6 animals protected)”. Moreover, in assay [2] (FLIPR assay, Table 2), the EC50 was less than 500 nM.

For the compound `CC(C)(C)CC(=O)Nc1nc2ccc(Cl)nn2c1-c1ccc(C(F)(F)F)cc1` [Compound 271, N-(6-chloro-3-(4-(trifluoromethyl)phenyl)imidazo[1,2-b]pyridazin-2-yl)-3,3-dimethylbutanamide], the “Rat MES activity” value in assay [1] is “++ (++ 4-6 animals protected)”. Further, the EC50 in assay [2] (FLIPR assay, Table 2) was less than 500 nM.

Turning to `Cc1ccc2nc(NC(=O)CC(C)(C)C)c(-c3cccc(C(F)(F)F)c3)n2n1` [Compound 308, 3,3-dimethyl-N-(6-methyl-3-(3-(trifluoromethyl)phenyl)imidazo[1,2-b]pyridazin-2-yl)butan amide], in assay [1], the 50% effective dose (ED50) came to 1.6 mg/kg and the “Rat MES activity” value is reported as “+++ (+++ 7-8 animals protected)”. In addition, the concentration for a half-maximal effect (EC50) in assay [2] (FLIPR assay, Table 2) was less than 500 nM.

Consider `Cc1ccc2nc(NC(=O)CC(C)C(F)(F)F)c(-c3cccc(C(F)(F)F)c3)n2n1` (centres unmarked) [Compound 316, 4,4,4-trifluoro-3-methyl-N-(6-methyl-3-(3-(trifluoromethyl)phenyl)imidazo[1,2-b]pyridazin-2-yl)butanamide], for which, in assay [1], the “Rat MES activity” value was “++ (++ 4-6 animals protected)”. The EC50 in assay [2] (FLIPR assay, Table 2) is less than 500 nM.

For `CC(C)(C)CC(=O)Nc1nc2ccc(F)cn2c1-c1ccc(C(F)(F)F)cn1` [Compound 353, N-(6-fluoro-3-(5-(trifluoromethyl)pyridin-2-yl)imidazo[1,2-a]pyridin-2-yl)-3,3-dimethylbutanamide], the “Rat MES activity” value in assay [1] is “+++ (+++ 7-8 animals protected)”. Moreover, the EC50 in assay [2] (FLIPR assay (Table 3)) was less than 500 nM.

On to `CC(C)(C)CC(=O)Nc1nc2ccc(F)cn2c1-c1nc2ccccc2s1` [Compound 360, N-(3-(benzo[d]thiazol-2-yl)-6-fluoroimidazo[1,2-a]pyridin-2-yl)-3,3-dimethylbutanamide], for which the “Rat MES activity” value in assay [1] is “+ (+ 2-3 animals protected)”. The concentration for a half-maximal effect (EC50) in assay [2] (FLIPR assay (Table 3)) is less than 500 nM.

With `CC(C)(C)CC(=O)Nc1nc2ccc(F)cn2c1-c1ccc(Cl)cn1` [Compound 363, N-(3-(5-chloropyridin-2-yl)-6-fluoroimidazo[1,2-a]pyridin-2-yl)-3,3-dimethylbutanamide], the “Rat MES activity” value in assay [1] is “++ (++ 4-6 animals protected)”. In assay [2] (FLIPR assay (Table 3)), the EC50 was less than 500 nM.

Consider `CC(C)(C)CC(=O)Nc1nc2ccc(F)cn2c1-c1nccs1` [Compound 371, N-(6-fluoro-3-(thiazol-2-yl)imidazo[1,2-a]pyridin-2-yl)-3,3-dimethyl butanamide], for which, in assay [1], it took a dose of 3.6 mg/kg to reach the 50% effect level (ED50) and the “Rat MES activity” value is “++ (++ 4-6 animals protected)”. For the same compound, in assay [2] (FLIPR assay (Table 3)), the EC50 fell in the range of 500 to 3000 nM.

On to `CC(C)(C(=O)Nc1nc2ccc(C(F)(F)F)cn2c1C1CCC1)C(F)(F)F` [Compound 428, N-(3-cyclobutyl-6-(trifluoromethyl)imidazo[1,2-a]pyridin-2-yl)-3,3,3-trifluoro-2,2-dimethylpropanamide], for which, in assay [1], the ED50 is 1.1 mg/kg and the “Rat MES activity” value is on record as “+++ (+++ 7-8 animals protected)”. In addition, the concentration for a half-maximal effect (EC50) in assay [2] (FLIPR assay (Table 6)) is less than 500 nM.

Turning to `CC(C)(C(=O)Nc1nc2ccc(C(F)(F)F)cn2c1C1CC1)C(F)(F)F` [Compound 429, N-(3-cyclopropyl-6-(trifluoromethyl)imidazo[1,2-a]pyridin-2-yl)-3,3,3-trifluoro-2,2-dimethylpropanamide], in assay [1], the 50% effect level (ED50) was put at a dose of 3.4 mg/kg and the “Rat MES activity” value is reported as “+++ (+++ 7-8 animals protected)”. In addition, the 50% effective concentration (EC50) in assay [2] (FLIPR assay (Table 6)) is 500 to 3000 nM.

Turning to `O=C(Nc1nc2ccc(C(F)(F)F)cn2c1C1CCCC1)c1ccc(F)c(F)c1` [Compound 430, N-(3-cyclopentyl-6-(trifluoromethyl)imidazo[1,2-a]pyridin-2-yl)-3,4-difluorobenzamide], in assay [1], it took a dose of 2.3 mg/kg to reach the 50% effect level (ED50) and the “Rat MES activity” value is on record as “++ (++ 4-6 animals protected)”. Further, the 50% effective concentration (EC50) in assay [2] (FLIPR assay (Table 6)) fell in the range of 500 to 3000 nM.

As to `O=C(Nc1nc2ccc(C(F)(F)F)nn2c1C1CC1)c1ccc(F)c(F)c1` [Compound 434, N-(3-cyclopropyl-6-(trifluoromethyl)imidazo[1,2-b]pyridazin-2-yl)-3,4-difluorobenzamide], in assay [1], the “Rat MES activity” value was “++ (++ 4-6 animals protected)”. Moreover, the EC50 in assay [2] (FLIPR assay (Table 6)) lay in the range of 500 to 3000 nM.

Consider `CC(C)(C(=O)Nc1nc2ccc(C(F)(F)F)nn2c1C1CC1)C(F)(F)F` [Compound 435, N-(3-cyclopropyl-6-(trifluoromethyl)imidazo[1,2-b]pyridazin-2-yl)-3,3,3-trifluoro-2,2-dimethylpropanamide], for which, in assay [1], the “Rat MES activity” value is given as “+++ (+++ 7-8 animals protected)”. Also, the EC50 in assay [2] (FLIPR assay (Table 6)) was in the range of 500 to 3000 nM.

For the compound “N-(6-fluoro-3-(3-(trifluoromethoxy)phenyl)imidazo yl)cycloheptanecarboxamide [Compound 293]”, the EC50 in assay [2] (FLIPR assay, Table 2) was less than 500 nM.

As for “N-(6-fluoro-3-(3-(trifluoromethyl)phenyl)imidazo yl)cycloheptanecarboxamide [Compound 294]”, the half-maximal effective concentration (EC50) in assay [2] (FLIPR assay, Table 2) was less than 500 nM.

(Values after patent publication US9018208B2, “Heterocycles as potassium channel modulators” (Icagen Inc., priority 2007, dated 2015).)
